pKi: −log10 of the molar value.
target: T1, GST-tagged-Wee1 kinase (Homo sapiens, UniProt P30291); test: Wee1 time-resolved fluorescence equilibrium binding assay (displacement of Oregon Green-labeled ATP-competitive kinase probe); settings: read-out: Wee-1 inhibition (Ki)
T1 construct: purchased Carnabio (Carna Biosciences) 05-177
In short: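 Time-resolved fluorescence equilibrium binding with GST-Wee1, measuring displacement of a rapidly reversible Oregon Green-labelled ATP-competitive probe by competitive inhibitors; values reported as Ki.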

T1 sequence (P30291 whole entry): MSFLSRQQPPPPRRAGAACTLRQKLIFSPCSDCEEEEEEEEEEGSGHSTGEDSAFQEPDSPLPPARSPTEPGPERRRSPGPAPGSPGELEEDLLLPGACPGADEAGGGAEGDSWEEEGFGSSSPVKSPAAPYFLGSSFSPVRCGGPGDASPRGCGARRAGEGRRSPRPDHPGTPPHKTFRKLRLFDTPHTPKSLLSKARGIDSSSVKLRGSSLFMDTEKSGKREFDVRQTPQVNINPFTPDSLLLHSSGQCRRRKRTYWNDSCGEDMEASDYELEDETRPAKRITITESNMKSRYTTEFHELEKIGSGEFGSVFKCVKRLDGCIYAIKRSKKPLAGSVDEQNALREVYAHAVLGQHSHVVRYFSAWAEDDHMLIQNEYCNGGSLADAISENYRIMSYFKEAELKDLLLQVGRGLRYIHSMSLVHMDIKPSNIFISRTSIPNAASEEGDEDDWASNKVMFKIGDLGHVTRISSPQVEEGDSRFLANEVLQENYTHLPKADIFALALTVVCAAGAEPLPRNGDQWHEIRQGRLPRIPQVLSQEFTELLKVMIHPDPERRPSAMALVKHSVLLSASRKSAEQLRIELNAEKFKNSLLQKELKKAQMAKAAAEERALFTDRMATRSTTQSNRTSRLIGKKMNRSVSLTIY

Row | SMILES | pKi
1 | O=c1c2cnc(Nc3ccc4c(c3)CN(CC(F)F)CC43CC3)nc2n2ccnc2n1-c1c(F)cccc1Cl [Example 224, 6-(2-chloro-6-fluorophenyl)-2-{[2′-(2,2-difluoroethyl)-2′,3′-dihydro-1′H-spiro[cyclopropane-1,4′-isoquinolin]-7′-yl]amino}imidazo[1,2-a]pyrimido[5,4-e]pyrimidin-5(6H)-one] | > 8.00
2 | O=c1c2cnc(Nc3ccc4c(c3)CN(CCF)CC43CC3)nc2n2ccnc2n1-c1c(F)cccc1Cl [Example 225, 6-(2-chloro-6-fluorophenyl)-2-{[2′-(2-fluoroethyl)-2′,3′-dihydro-1′H-spiro[cyclopropane-1,4′-isoquinolin]-7′-yl]amino}imidazo[1,2-a]pyrimido[5,4-e]pyrimidin-5(6H)-one] | > 8.00
3 | CCN(CC)C1Cc2ccc(Nc3ncc4c(=O)n(-c5c(F)cccc5Cl)c5nccn5c4n3)cc2C1 (centres unmarked) [Example 226, 6-(2-chloro-6-fluorophenyl)-2-{[2-(diethylamino)-2,3-dihydro-1H-inden-5-yl]amino}imidazo[1,2-a]pyrimido[5,4-e]pyrimidin-5(6H)-one] | > 8.00
4 | O=c1c2cnc(Nc3ccc4c(c3)CC(NC3CC3)C4)nc2n2ccnc2n1-c1c(F)cccc1Cl (centres unmarked) [Example 227, 6-(2-chloro-6-fluorophenyl)-2-{[2-(cyclopropylamino)-2,3-dihydro-1H-inden-5-yl]amino}imidazo[1,2-a]pyrimido[5,4-e]pyrimidin-5(6H)-one] | > 8.00
5 | O=c1c2cnc(Nc3ccc4c(c3)CNCC43CC3)nc2n2ccnc2n1-c1c(F)cccc1Cl [Example 228, 6-(2-chloro-6-fluorophenyl)-2-(2′,3′-dihydro-1′H-spiro[cyclopropane-1,4′-isoquinolin]-7′-ylamino)imidazo[1,2-a]pyrimido[5,4-e]pyrimidin-5(6H)-one] | > 8.00
6 | CN(C)C1CCN(C(=O)c2ccc(Nc3ncc4c(=O)n(-c5c(Cl)cccc5Cl)c5nccn5c4n3)cc2)CC1 [Example 237, 6-(2,6-dichlorophenyl)-2-[(4-{[4-(dimethylamino)piperidin-1-yl]carbonyl}phenyl)amino]imidazo[1,2-a]pyrimido[5,4-e]pyrimidin-5(6H)-one] | > 8.00
7 | CN(C)C1CCC(NC(=O)c2ccc(Nc3ncc4c(=O)n(-c5c(Cl)cccc5Cl)c5nccn5c4n3)cc2)CC1 (centres unmarked) [Example 238, 4-{[6-(2,6-dichlorophenyl)-5-oxo-5,6-dihydroimidazo[1,2-a]pyrimido[5,4-e]pyrimidin-2-yl]amino}-N-[4-(dimethylamino)cyclohexyl]benzamide] | > 8.00
8 | CN1CCC(NC(=O)c2ccc(Nc3ncc4c(=O)n(-c5c(Cl)cccc5Cl)c5nccn5c4n3)cc2)CC1 [Example 239, 4-{[6-(2,6-dichlorophenyl)-5-oxo-5,6-dihydroimidazo[1,2-a]pyrimido[5,4-e]pyrimidin-2-yl]amino}-N-(1-methylpiperidin-4-yl)benzamide] | > 8.00
9 | CC(=O)N1Cc2cc(Nc3ncc4c(=O)n(-c5c(F)cccc5Cl)c5nccn5c4n3)ccc2C2(CC2)C1 [Example 241, 2-[(2′-acetyl-2′,3′-dihydro-1′H-spiro[cyclopropane-1,4′-isoquinolin]-7′-yl)amino]-6-(2-chloro-6-fluorophenyl)imidazo[1,2-a]pyrimido[5,4-e]pyrimidin-5(6H)-one] | > 8.00
10 | O=C(C1CC1)N1Cc2cc(Nc3ncc4c(=O)n(-c5c(F)cccc5Cl)c5nccn5c4n3)ccc2C2(CC2)C1 [Example 242, 6-(2-chloro-6-fluorophenyl)-2-{[2′-(cyclopropylcarbonyl)-2′,3′-dihydro-1′H-spiro[cyclopropane-1,4′-isoquinolin]-7′-yl]amino}imidazo[1,2-a]pyrimido[5,4-e]pyrimidin-5(6H)-one] | > 8.00
11 | CS(=O)(=O)N1Cc2cc(Nc3ncc4c(=O)n(-c5c(F)cccc5Cl)c5nccn5c4n3)ccc2C2(CC2)C1 [Example 243, 6-(2-chloro-6-fluorophenyl)-2-{[2′-(methylsulfonyl)-2′,3′-dihydro-1′H-spiro[cyclopropane-1,4′-isoquinolin]-7′-yl]amino}imidazo[1,2-a]pyrimido[5,4-e]pyrimidin-5(6H)-one] | > 8.00
12 | O=c1c2cnc(Nc3ccc(N[C@H]4CN5CCC4CC5)cc3)nc2n2ccnc2n1-c1ccccc1Cl [Example 245, 2-({4-[(3R)-1-azabicyclo[2.2.2]oct-3-ylamino]phenyl}amino)-6-(2-chlorophenyl)imidazo[1,2-a]pyrimido[5,4-e]pyrimidin-5(6H)-one] | > 8.00

Other lines, results leading:

Row | pKi | SMILES
13 | 7.00 to 8.00 | CC1SC(c2ccc(Nc3ncc4c(=O)n(-c5ccccc5Cl)c5nccn5c4n3)cc2)NC1=O (centres unmarked) [Example 221, 6-(2-chlorophenyl)-2-{[4-(5-methyl-4-oxo-1,3-thiazolidin-2-yl)phenyl]amino}imidazo[1,2-a]pyrimido[5,4-e]pyrimidin-5(6H)-one]
14 | 7.00 to 8.00 | O=c1c2cnc(Nc3ccc(-c4cn5ccsc5n4)cc3)nc2n2ccnc2n1-c1ccccc1Cl [Example 222, 6-(2-chlorophenyl)-2-{[4-(imidazo[2,1-b][1,3]thiazol-6-yl)phenyl]amino}imidazo[1,2-a]pyrimido[5,4-e]pyrimidin-5(6H)-one]
15 | > 8.00 | O=c1[nH][nH]c2c(-c3ccc(Nc4ncc5c(=O)n(-c6ccccc6Cl)c6nccn6c5n4)cc3)cccc12 [Example 223, 6-(2-chlorophenyl)-2-{[4-(3-oxo-2,3-dihydro-1H-indazol-7-yl)phenyl]amino}imidazo[1,2-a]pyrimido[5,4-e]pyrimidin-5(6H)-one]
16 | > 8.00 | O=c1c2cnc(Nc3ccc(N4CCC(N5CCCCC5)CC4)cc3)nc2n2ccnc2n1-c1ccccc1Cl [Example 229, 2-{[4-(1,4′-bipiperidin-1′-yl)phenyl]amino}-6-(2-chlorophenyl)imidazo[1,2-a]pyrimido[5,4-e]pyrimidin-5(6H)-one]
17 | > 8.00 | CN(C)[C@@H]1CCN(c2ccc(Nc3ncc4c(=O)n(-c5ccccc5Cl)c5nccn5c4n3)cc2)C1 [Example 230, 6-(2-chlorophenyl)-2-({4-[(3R)-3-(dimethylamino)pyrrolidin-1-yl]phenyl}amino)imidazo[1,2-a]pyrimido[5,4-e]pyrimidin-5(6H)-one]
18 | 7.00 to 8.00 | O=c1c2cnc(Nc3ccc(N4CCCC(C(F)(F)F)C4)cc3)nc2n2ccnc2n1-c1ccccc1Cl (centres unmarked) [Example 231, 6-(2-chlorophenyl)-2-({4-[3-(trifluoromethyl)piperidin-1-yl]phenyl}amino)imidazo[1,2-a]pyrimido[5,4-e]pyrimidin-5(6H)-one]
19 | 7.00 to 8.00 | N#CCCN1CCN(c2ccc(Nc3ncc4c(=O)n(-c5ccccc5Cl)c5nccn5c4n3)cc2)CC1 [Example 232, 3-[4-(4-{[6-(2-chlorophenyl)-5-oxo-5,6-dihydroimidazo[1,2-a]pyrimido[5,4-e]pyrimidin-2-yl]amino}phenyl)piperazin-1-yl]propanenitrile]
20 | 7.00 to 8.00 | N#CCCN(c1ccc(Nc2ncc3c(=O)n(-c4ccccc4Cl)c4nccn4c3n2)cc1)C1CC1 [Example 233, 3-[(4-{[6-(2-chlorophenyl)-5-oxo-5,6-dihydroimidazo[1,2-a]pyrimido[5,4-e]pyrimidin-2-yl]amino}phenyl)(cyclopropyl)amino]propanenitrile]
21 | > 8.00 | CN(C)CCNc1ccc(Nc2ncc3c(=O)n(-c4ccccc4Cl)c4nccn4c3n2)cc1 [Example 234, 6-(2-chlorophenyl)-2-[(4-{[2-(dimethylamino)ethyl]amino}phenyl)amino]imidazo[1,2-a]pyrimido[5,4-e]pyrimidin-5(6H)-one]
22 | > 8.00 | NC(=O)C1CCN(c2ccc(Nc3ncc4c(=O)n(-c5ccccc5Cl)c5nccn5c4n3)cc2)CC1 [Example 235, 1-(4-{[6-(2-chlorophenyl)-5-oxo-5,6-dihydroimidazo[1,2-a]pyrimido[5,4-e]pyrimidin-2-yl]amino}phenyl)piperidine-4-carboxamide]
23 | > 8.00 | O=c1c2cnc(Nc3ccc(N4CCC(N5CCOCC5)CC4)cc3)nc2n2ccnc2n1-c1ccccc1Cl [Example 236, 6-(2-chlorophenyl)-2-({4-[4-(morpholin-4-yl)piperidin-1-yl]phenyl}amino)imidazo[1,2-a]pyrimido[5,4-e]pyrimidin-5(6H)-one]
24 | > 8.00 | O=c1c2cnc(Nc3ccc(N4CCC(N5CCCC5)CC4)cc3)nc2n2ccnc2n1-c1c(Cl)cccc1Cl [Example 240, 6-(2,6-dichlorophenyl)-2-({4-[4-(pyrrolidin-1-yl)piperidin-1-yl]phenyl}amino)imidazo[1,2-a]pyrimido[5,4-e]pyrimidin-5(6H)-one]
25 | > 8.00 | O=c1c2cnc(Nc3ccc(N4CCN5CCC[C@@H]5C4)cc3)nc2n2ccnc2n1-c1c(F)cccc1Cl [Example 244, 6-(2-chloro-6-fluorophenyl)-2-({4-[(8aR)-hexahydropyrrolo[1,2-a]pyrazin-2(1H)-yl]phenyl}amino)imidazo[1,2-a]pyrimido[5,4-e]pyrimidin-5(6H)-one]
26 | > 8.00 | O=c1c2cnc(Nc3ccc(NCCN4CCCC4)cc3)nc2n2ccnc2n1-c1ccccc1Cl [Example 246, 6-(2-chlorophenyl)-2-[(4-{[2-(pyrrolidin-1-yl)ethyl]amino}phenyl)amino]imidazo[1,2-a]pyrimido[5,4-e]pyrimidin-5(6H)-one]
27 | > 8.00 | O=c1c2cnc(Nc3ccc(N4CCN(c5ccccn5)CC4)cc3)nc2n2ccnc2n1-c1ccccc1Cl [Example 247, 6-(2-chlorophenyl)-2-({4-[4-(pyridin-2-yl)piperazin-1-yl]phenyl}amino)imidazo[1,2-a]pyrimido[5,4-e]pyrimidin-5(6H)-one]
28 | > 8.00 | O=c1c2cnc(Nc3ccc(NCCN4CCOCC4)cc3)nc2n2ccnc2n1-c1ccccc1Cl [Example 248, 6-(2-chlorophenyl)-2-[(4-{[2-(morpholin-4-yl)ethyl]amino}phenyl)amino]imidazo[1,2-a]pyrimido[5,4-e]pyrimidin-5(6H)-one]
29 | > 8.00 | O=c1c2cnc(Nc3ccc(N4CCC[C@H]4CN4CCCC4)cc3)nc2n2ccnc2n1-c1ccccc1Cl [Example 249, 6-(2-chlorophenyl)-2-({4-[(2S)-2-(pyrrolidin-1-ylmethyl)pyrrolidin-1-yl]phenyl}amino)imidazo[1,2-a]pyrimido[5,4-e]pyrimidin-5(6H)-one]

— patent publication US8710065B2, “Tricyclic inhibitors of kinases” (AbbVie Inc., priority 2011, dated 2014)
